Consider 16 molecules from ChEMBL document CHEMBL1128878, “Simple compounds, 2-alkyl-2-amino-1,3-propanediols have potent immunosuppressive activity” (Bioorg Med Chem Lett, 1995).

One may read the IC50 as the concentration that inhibits the measured activity by half. A lower IC50 goes with inhibition by little substance.

For data set [1], the species on record is Mus musculus. The data set can be described thus: Inhibition of mouse allogenic mixed leukocyte response (MLR). In kind it is functional.
The subject of data set [2] is Rattus norvegicus. The data set can be described thus: Compound was evaluated in vivo for the immunosuppressive activity on rat skin allograft at ip dose of 0.03 mg/Kg. The class given is functional.
For data set [3], the system named is Rattus norvegicus. The data set can be described thus: Compound was evaluated in vivo for the immunosuppressive activity on rat skin allograft at ip dose of 0.1 mg/Kg. In kind it is functional.
The subject of data set [4] is Rattus norvegicus. The data set can be described thus: Compound was evaluated in vivo for the immunosuppressive activity on rat skin allograft at ip dose of 0.3 mg/Kg. The class given is functional.
Data set [5] has as its system Rattus norvegicus. The data set can be described thus: Compound was evaluated in vivo for the immunosuppressive activity on rat skin allograft at ip dose of 1 mg/Kg. The class given is functional.
The subject of data set [6] is Rattus norvegicus. The data set can be described thus: Compound was evaluated in vivo for the immunosuppressive activity on rat skin allograft at ip dose of 10 mg/Kg; toxic (animals died). In kind it is ADME, organism-based.
Data set [7] concerns Rattus norvegicus. The data set can be described thus: Compound was evaluated in vivo for the immunosuppressive activity on rat skin allograft at ip dose of 3 mg/Kg. The class given is functional.
Data set [8] concerns Rattus norvegicus. The data set can be described thus: Compound was evaluated in vivo for the immunosuppressive activity on rat skin allograft at ip dose of 30 mg/Kg. In kind it is functional.
The test system of data set [9] is Rattus norvegicus. The data set can be described thus: Compound was evaluated in vivo for the immunosuppressive activity on rat skin allograft at ip dose of 10 mg/Kg. The class given is functional.
Data set [10] deals with Rattus norvegicus. The data set can be described thus: Compound was evaluated in vivo for the immunosuppressive activity on rat skin allograft at ip dose of 1 mg/Kg; toxic (animals died). The class given is functional, organism-based.

The structures appear in SMILES notation.

Take `CCCCCCCCCCCCCCCC[C@@H](O)[C@H](O)C(N)(CO)CO`: inhibition in data set [1] was half-maximal at 320 nM (IC50).
Still for that read-out and setting: then `CCCCCCCCCCCCC(N)(CO)CO`, with 270 nM; and `CCCCCCC(O)CCCCCCCCC[C@@H](O)[C@H](O)C(N)(CO)CO` (some centres undefined), with 1630 nM.
The same measure, in the same setting: then `CCCCCCC(O)CCCCCC/C=C/C[C@@H](O)[C@H](O)C(N)(CO)CO` (some centres undefined), with 4.7 nM; and `CCCCCCCCCCCCCCCCCCCCCCC(N)(CO)CO`, with 1600 nM; and `CCCCCCCCCCCCCCCCC(N)(CO)CO`, with 10 nM.
With `CCCCCCCCCCCCCCCC(N)(CO)CO`, the IC50 in data set [1] was determined as 2.9 nM. For the same molecule, the MST was 10.8 days in data set [2]; 14 days in data set [3]; 33.5 days in data set [4]; 45.3 days in [5]; “Toxic (animals died)” in data set [6]; 57.8 days in data set [7].
The molecule `CCCCCCCCCCC(N)(CO)CO` came in with an IC50 in [1] of 440 nM.
Still for that read-out and setting: then `CCCCCCCCCCCCCCCCCCCCC(N)(CO)CO`, with 190 nM.
On to `C/C=C/C[C@@H](C)[C@@H](O)[C@H]1C(=O)N[C@@H](CC)C(=O)N(C)CC(=O)N(C)[C@@H](CC(C)C)C(=O)N[C@@H](C(C)C)C(=O)N(C)[C@@H](CC(C)C)C(=O)N[C@@H](C)C(=O)N[C@H](C)C(=O)N(C)[C@@H](CC(C)C)C(=O)N(C)[C@@H](CC(C)C)C(=O)N(C)[C@@H](C(C)C)C(=O)N1C` [CYCLOSPORINE], for which the MST in [5] was found to be 7.3 days; in [7] it was 10.8 days; in [8], 19.2 days; in data set [9] it was 15.2 days.
For `CCCCCCCCCCCCCCCCCCC(N)C(=O)O` (centres undefined), it took 130 nM to reach half-maximal inhibition in [1] (IC50).
In [1], `CCCCCCC(=O)CCCCCC/C=C/C[C@@H](O)[C@H](O)[C@@](N)(CO)C(=O)O` [MYRIOCIN] returned an IC50 of 3 nM. The MST in data set [2] is 7.8 days; in data set [3], 9.2 days; in data set [4], 11.2 days; in data set [10], “Toxic (animals died)”.
For `CCCCCCCCCCCCCCC(N)(CO)CO`, half-maximal inhibition in data set [1] (IC50) required 5.9 nM.
On the same count and under the same terms, then `CCCCCCCCC(N)(CO)CO`, with 3700 nM; and `CCCCCCCCCCCCC/C=C/C[C@@H](O)[C@H](O)C(N)(CO)CO`, with 56 nM.
In turn, `CCCCCCCCCCCCCC(N)(CO)CO` displayed a concentration for half-maximal inhibition (IC50) in data set [1] of 12 nM.
